Experimental data as given in article PMC8630742, “Citrullinated Epitopes Identified on Tumour MHC Class II by Peptide Elution Stimulate Both Regulatory and Th1 Responses and Require Careful Selection for Optimal Anti-Tumour Responses” (Frontiers in Immunology, 2021).

Assays:
[1] = system: HLA-DP4; assay: HLA-DP4 competition binding assay against biotinylated Hepatitis B peptide (membrane preps, ELISA); design: species or system human; conditions: Figure 1D; for binding of the reference Hepatitis B peptide in presence of competitor (% maximal binding): equal quantity of non-biotinylated competitor and 10 µg biotinylated HepB 181-193, B16HHDII/cDP4 membrane preps, 4 hrs 37°C, streptavidin ELISA, anti-HLA-DP; for competition with the Hepatitis B reference peptide: equal quantity of competitor and 10 µg biotinylated HepB 181-193
Description: Binding of peptides to HLA-DP4 was assessed by extraction of membrane fractions from B16HHDII/cDP4 cells using Mem-PER™ Plus Membrane Protein Extraction Kit (Thermo Fisher-Scientific) according to manufacturer’s instructions. Membrane preps containing HLA-DP4 were incubated with 10 µg biotinylated peptide for 4hrs at 37°C. For competition assays, the membrane preps and 10 µg biotinylated Hepatitis B peptide were pre-incubated in the presence of specified concentrations of non-biotinylated peptides. Biotinylated peptide bound to HLA-DP4 was detected by capture onto streptavidin-coated ELISA plates and detected with anti-HLA-DP antibody clone B7/21 (Leinco Technologies Inc, USA) and anti-mouse IgG3 HRP antibody (Invitrogen, UK). Binding was quantified with TMB substrate and absorbance read at 405nm wavelength.
Figure 1 Citrullinated peptide combination vaccination provides poor tumour therapy in HLA-DP4 transgenic mice. HLA-DP4 transgenic mice were challenged with B16 cells constitutively expressing DP4 (A) or expressing DP4 under an IFNγ inducible promoter (B) and four days later mice were immunised with combination of 10ug each of seven eluted peptides and tumour growth and survival monitored. N=10/group. (C), HLA-DP4 transgenic mice were immunised with seven peptide combination vaccine at days 1, 8 and 15 and immune responses monitored at day 21 by IFNγ ELISpot assay. Results are representative of at least two independent experiments in which n=3. (D), Competition of equal quantity of non-biotinylated competitor peptides in the presence of 10µg biotinylated HepB 181-193 peptide. Results are representative of at least two independent experiments.

[2] = system: B16/HHDII/cDP4 (B16cDP4) cells; assay: Tumour therapy, B16cDP4 melanoma in HLA-DP4 transgenic mice; type: in vivo, mouse; conditions: for tumour free survival: 25ug individual peptide with CpG/MPLA, n=10/group, Figure 4A; for overall survival at day 50 / tumour growth: 25ug individual peptide, compared to unimmunised control, Figure 4
Description: (§1) For all studies, the mice were randomised into different groups but not blinded to the investigators. Peptides were dissolved in PBS and then emulsified with CpG (ODN 1826, Invivogen) and MPLA (Invivogen) and delivered at 10 or 25µg dose unless stated otherwise. Adjuvants were used at 5µg/dose. Peptides in adjuvant were injected subcutaneously at the base of the tail. Mice were immunised on day 1, 8 and 15 and spleens were removed for analysis at day 21.
For the tumour therapy studies, HHDII/DP4 transgenic mice were challenged by subcutaneous injection with 5 × 105 B16/HHDII/cDP4 (B16cDP4) cells or 1 × 105 B16/HHDII/iDP4 (B16iDP4) cells subcutaneously on the flank at day 1 and then immunised on days 4, 11 and 18. Tumour growth was monitored at 3–4 days intervals and mice were humanely euthanised once tumour approached 15mm diameter.

[3] = system: splenocytes (IFNγ); assay: Ex vivo IFNγ ELISpot assay on splenocytes of immunised mice; type: in vivo, mouse; conditions: for IFNγ response to immunising peptide / IFNγ response at lower (10µg) immunising peptide dose: HLA-DP4 transgenic mice; for IFNγ response to immunising peptide: 25µg single peptide with CpG and MPLA days 1, 8, 15, splenocytes day 21, 10 µg/mL peptide, Figure 2A; for IFNγ response at lower (10µg) immunising peptide dose: 10µg single peptide, Figure 2F; for IFNγ response in presence of CD4 blocking antibody: anti-CD4 OKT4 20µg/ml, C; for avidity of the immune response: titrating quantities of peptide in IFNγ ELISpot, Figure 2E
Description: as §1
ELISpot assays were performed using murine IFNγ and IL-10 capture and detection reagents according to the manufacturer’s instructions (Mabtech). In brief, the specific cytokine antibodies were coated onto wells of 96-well Immobilin-P plates. […] (RPMI medium 1640 (GIBCO/BRL) supplemented with 10% FCS (Sigma), 2mM L-glutamine (Sigma) and sodium bicarbonate buffered with additional 20mM HEPES (Sigma) and 50 µM 2-mercaptoethanol (2ME, Thermofisher). 5x10^5/well splenocytes were added in quadruplicate wells, plates were incubated for 40 hours at 37 °C/5% CO2. Cells with culture media only were added as negative control and cells cultured with 5 µg/ml Lipopolysaccharide (LPS, Sigma) were used as a positive control. Where relevant anti-CD4 (human clone OKT4, BioXcell) or CD8 (mouse clone 2.43, BioXcell) blocking antibodies were added to splenocytes at 20µg/ml for 15 minutes prior to stimulation with peptide. After incubation, captured cytokine was detected by biotinylated cytokine specific antibody and developed using streptavidin alkaline phosphatase and chromogenic substrate. Spots were analysed and counted using an automated plate reader (Cellular Technologies Ltd). Results were represented as spots/million splenocytes.

[4] = system: splenocytes (IL-10); assay: Ex vivo IL-10 ELISpot assay on splenocytes of immunised mice; type: in vivo, mouse; conditions: for IL-10 response to immunising peptide: HLA-DP4 transgenic mice, 25ug single peptide with CpG/MPLA days 1, 8, 15, day 21, Figure 3A
Description: as §1
ELISpot assays were performed using murine IFNγ and IL-10 capture and detection reagents according to the manufacturer’s instructions (Mabtech). In brief, the specific cytokine antibodies were coated onto wells of 96-well Immobilin-P plates. Synthetic peptides (Genescript) were used at 10 µg/mL and diluted in culture media (RPMI medium 1640 (GIBCO/BRL) supplemented with 10% FCS (Sigma), 2mM L-glutamine (Sigma) and sodium bicarbonate buffered with additional 20mM HEPES (Sigma) and 50 µM 2-mercaptoethanol (2ME, Thermofisher). 5x10^5/well splenocytes were added in quadruplicate wells, plates were incubated for 40 hours at 37 °C/5% CO2. Cells with culture media only were added as negative control and cells cultured with 5 µg/ml Lipopolysaccharide (LPS, Sigma) were used as a positive control. Where relevant anti-CD4 (human clone OKT4, BioXcell) or CD8 (mouse clone 2.43, BioXcell) blocking antibodies were added to splenocytes at 20µg/ml for 15 minutes prior to stimulation with peptide. After incubation, captured cytokine was detected by biotinylated cytokine specific antibody and developed using streptavidin alkaline phosphatase and chromogenic substrate. Spots were analysed and counted using an automated plate reader (Cellular Technologies Ltd). Results were represented as spots/million splenocytes.

[5] = mice immunised with 25ug peptide, Figure 2B
[6] = mice immunised with 25ug peptide

Substance | binding of the reference Hepatitis B peptide in presence of competitor (% maximal binding) [1] | tumour free survival [2] [%] | overall survival at day 50 / tumour growth [2] | IFNγ response to immunising peptide [3] | IL-10 response to immunising peptide [4] | other results
NGQT-cit-EHALLAYTLGVKQLIVGVNK [citELO, Synthetic citrullinated peptide Elongation factor 1-alpha 1 130-154] | 40-50% |  |  |  |  | 
KRDVTLEAS-cit-ESSKP-cit-AVLKP-cit- [citSeThrePho, Synthetic citrullinated peptide Serine/threonine-protein phosphatase 2A 55 kDa regulatory subunit B gamma isoform 370-391] | 30-35% |  |  |  |  | 
LEIY-cit-YTSFVPFTIPHSTTR [citCp450, Synthetic citrullinated peptide Cytochrome P450 1A2 373-392] | 40-50% | 20 | tumour growth similar to control | absence of any detectable IFNγ response | strong IL-10 response | IL-10 response in HHDII/DR1 mice ([4]; HHDII/DR1 compared to HHDII/DP4 mice, Figure 3C): fail to be stimulated; IL-10 response in presence of CD4 blocking antibody ([4]; mice immunised with 25ug citCp450, did not reach significance, Figure 3B): reduction in response; IL-10 response when delivered as part of the combination vaccine ([4]; seven peptide combination vaccine, Figure 3D): stimulated IL-10 responses
MDEIDAIGG-cit-RFSEGTSADREIQ [cit26S-10B, Synthetic citrullinated peptide 26S protease regulatory subunit 10B 246-268] | 30-35% |  |  |  |  | 
EPKSSCYNTHEKRIYQSNMLNRYLI [GRI, synthetic native peptide Glutamate receptor ionotropic 316-340] |  |  |  |  |  | IFNγ response to unmodified peptide in mice immunised with the citrullinated peptide ([3]; mice immunised with 25ug citGRI, Figure 2B): cross reactivity
fibrinogen [reference compound] |  |  |  |  |  | competition with the Hepatitis B reference peptide [1]: no competition
ML-cit-CASGAEL-cit-QPPRDVPPDAR [cit5T4, Synthetic citrullinated peptide Trophoblast glycoprotein-like protein 40-61] | 40-50% |  |  |  |  | 
EPKSSCYNTHEK-cit-IYQSNMLN-cit-YLI [citGRI, Synthetic citrullinated peptide Glutamate receptor ionotropic 316-340] | 40-50% | 70 | significant overall survival | strong IFNγ responses | some IL-10-producing cells | IFNγ response at lower (10µg) immunising peptide dose [3]: failed to stimulate an immune response; IFNγ response in presence of CD4 blocking antibody [3, 5]: efficiently blocked; avidity of the immune response [3, 6]: 10^-7 M
VFDWIRKERNQYGEVRV-cit-FNTYFFR [citMMP21, Synthetic citrullinated peptide Matrix metalloproteinase-21 337-360] | 40-50% | 90 | strong overall survival | strong IFNγ responses | some IL-10-producing cells | IFNγ response in HHDII/DR1 transgenic mice ([3]; HHDII/DR1 mice, Figure 2D): No responses; IFNγ response at lower (10µg) immunising peptide dose [3]: only the response to citMMP21 was observed; IFNγ response in presence of CD4 blocking antibody [3, 5]: reduced; IFNγ response in presence of CD8 blocking antibody ([3]; anti-CD8 2.43 20µg/ml, mice immunised with 25ug peptide, Figure 2C): No significant blocking; avidity of the immune response [3, 6]: 10^-8 M
collagen [reference compound] |  |  |  |  |  | competition with the Hepatitis B reference peptide [1]: no competition
